Values quoted from earlier work, collected in patent publication US7968723B2, “Compounds, their preparation and use” (High Point Pharmaceuticals, LLC, priority 2004, dated 2011).

What was measured:
[1] = test system: high fat diet induced Insulin resistant mice and diabetic ob/ob; settings: PNAS 2003, 100, 15924-15929
[2] = test system: C2C12 muscle cells; settings: in vitro treatment of C2C12 muscle cells; BioChem. Biophys. Acta 2003, 1633, 43-50; Mol. Endocrin. 2003, 17, 2477-2493

Cc1cc(SCc2sc(-c3ccc(C(F)(F)F)cc3)nc2C)ccc1OCC(=O)O [GW501516]
insulin sensitivity [1]: improved insulin sensitivity | plasma glucose and insulin [1]: lowering of plasma glucose and insulin | regulation of genes (TG hydrolysis, FFA oxidation, lipid utilization, energy expenditure, lipid efflux) [2]: regulation of genes involved with TG hydrolysis and FFA oxidation
